Test results from article PMC7914463, “Caffeic Acid Modulates Processes Associated with Intestinal Inflammation” (Nutrients, 2021).
Where two headings read alike, the source gives them in different places.

Target: T1, angiotensin-converting enzyme (ACE) (Sus scrofa, UniProt F1RRW5)
T1 construct: ACE isolated from porcine kidneys (EC 3.4.15.1)
T1 sequence (F1RRW5 34-1309): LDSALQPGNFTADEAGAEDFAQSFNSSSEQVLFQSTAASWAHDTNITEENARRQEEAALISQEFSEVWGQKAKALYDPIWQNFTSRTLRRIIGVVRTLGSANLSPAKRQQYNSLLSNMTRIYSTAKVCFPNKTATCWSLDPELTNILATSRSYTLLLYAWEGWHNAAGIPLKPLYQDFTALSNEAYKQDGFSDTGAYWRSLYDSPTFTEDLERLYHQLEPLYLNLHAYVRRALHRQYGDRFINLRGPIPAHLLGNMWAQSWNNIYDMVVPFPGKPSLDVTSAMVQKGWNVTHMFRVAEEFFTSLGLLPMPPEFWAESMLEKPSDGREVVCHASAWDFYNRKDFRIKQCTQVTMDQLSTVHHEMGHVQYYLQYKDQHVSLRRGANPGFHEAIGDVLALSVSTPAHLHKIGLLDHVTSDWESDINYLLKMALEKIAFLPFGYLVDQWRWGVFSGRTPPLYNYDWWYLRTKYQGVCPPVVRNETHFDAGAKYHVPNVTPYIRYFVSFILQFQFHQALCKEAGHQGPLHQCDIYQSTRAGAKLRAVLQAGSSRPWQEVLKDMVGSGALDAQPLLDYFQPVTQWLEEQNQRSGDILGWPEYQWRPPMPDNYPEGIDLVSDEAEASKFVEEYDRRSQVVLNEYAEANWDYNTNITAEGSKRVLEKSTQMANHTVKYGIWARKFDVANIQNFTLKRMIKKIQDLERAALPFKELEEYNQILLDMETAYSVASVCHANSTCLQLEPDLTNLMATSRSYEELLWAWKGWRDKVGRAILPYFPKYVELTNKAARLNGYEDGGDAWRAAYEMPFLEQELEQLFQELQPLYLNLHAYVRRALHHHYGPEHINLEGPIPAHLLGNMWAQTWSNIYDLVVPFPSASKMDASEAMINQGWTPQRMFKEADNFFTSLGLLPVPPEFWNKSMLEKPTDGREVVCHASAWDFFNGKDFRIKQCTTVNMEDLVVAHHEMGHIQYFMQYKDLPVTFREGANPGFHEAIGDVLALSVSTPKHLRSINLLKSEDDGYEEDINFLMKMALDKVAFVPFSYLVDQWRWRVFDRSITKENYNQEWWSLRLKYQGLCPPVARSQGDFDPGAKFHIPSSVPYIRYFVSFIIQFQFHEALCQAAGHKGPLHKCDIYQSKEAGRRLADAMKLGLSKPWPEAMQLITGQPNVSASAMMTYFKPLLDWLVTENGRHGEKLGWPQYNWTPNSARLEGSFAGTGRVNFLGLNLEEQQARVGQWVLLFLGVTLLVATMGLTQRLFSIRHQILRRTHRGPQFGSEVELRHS
Test: fluorescence assay, hydrolysis of Abz-Gly-Phe(NO2)-Pro
Type: biochemical

O=C1O[C@H]([C@@H](O)CO)C(O)=C1O [AA, L-ascorbic acid]
IC50: 81.3 mM

O=C(O)/C=C/c1ccc(O)c(O)c1 [CFA, Caffeic acid]
IC50 (read-out: IC50 (μg/mL) (converted)): 8.97 mM

N[C@@H](CCC(=O)N[C@@H](CS)C(=O)NCC(=O)O)C(=O)O [GSH]
IC50: 12.79 ± 1.70 µg/mL
